For orientation: EC50 means the concentration that produces a half-maximal response. One may read the IC50 as the concentration at which inhibition is half-maximal. The AC50 is the midpoint of the concentration-response curve, whichever way the signal moves.

EC50, IC50 and AC50 data for two compounds are collected here from ChEMBL document CHEMBL1201862, “PubChem BioAssay data set” (2004).

A short description of assay [1]: NIH-3T3 fibroblast cytotoxicity, dose response, cytotoxicity control, cell-based, fluorescence, Alamar Blue, secondary assay (AID 2327).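 Note: NIH-3T3 mouse fibroblasts cultured with fluconazole at 8 µg/mL.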 The assay is classed as functional. A general note: The colour change of resazurin is a common sign of viable cells or microbes.
Assay [2] deals with BJ. Description: cytotoxicity toward BJ-TERT fibroblasts, dose response, cell-based, RAS-independent, luminescence (AID 1933). Conditions: Homo sapiens. It counts as functional.
The subject of assay [3] is BJ. Description: cells. It counts as functional, cell-based. Conditions: Homo sapiens.
The nature of assay [4]: inhibitors of intracellular T. cruzi replication, confirmation, NIH3T3 host cells, beta-gal luminescence (AID 2044).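 Note: intracellular parasites grown in NIH/3T3 mouse fibroblasts as host cells; luminescent beta-galactosidase reporter signal from transgenic T. cruzi replicating inside host cells; inhibitors lower the luminescence signal.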 It counts as functional, cell-based.
Assay [5] addresses T1, Serine/threonine-protein phosphatase (Candida dubliniensis (strain CD36 / CBS 7987 / NCPF 3949 / NRRLY-17841) (Yeast), UniProt B9W6M3).
T1 sequence (B9W6M3 whole entry): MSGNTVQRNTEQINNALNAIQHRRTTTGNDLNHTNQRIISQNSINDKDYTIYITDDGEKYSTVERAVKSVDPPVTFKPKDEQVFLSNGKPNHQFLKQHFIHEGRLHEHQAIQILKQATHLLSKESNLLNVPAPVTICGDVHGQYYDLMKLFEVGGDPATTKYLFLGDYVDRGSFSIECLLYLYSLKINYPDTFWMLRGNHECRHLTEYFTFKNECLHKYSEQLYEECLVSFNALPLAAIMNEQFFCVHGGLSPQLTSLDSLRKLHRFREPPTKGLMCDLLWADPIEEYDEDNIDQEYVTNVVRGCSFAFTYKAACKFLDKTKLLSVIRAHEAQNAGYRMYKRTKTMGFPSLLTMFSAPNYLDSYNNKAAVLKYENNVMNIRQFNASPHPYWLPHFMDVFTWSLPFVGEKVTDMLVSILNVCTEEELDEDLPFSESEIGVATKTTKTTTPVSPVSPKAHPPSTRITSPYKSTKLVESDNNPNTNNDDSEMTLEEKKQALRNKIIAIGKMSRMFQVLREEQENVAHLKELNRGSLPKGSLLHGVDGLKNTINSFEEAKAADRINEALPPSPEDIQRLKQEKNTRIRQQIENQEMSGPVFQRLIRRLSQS
Description: calcineurin pathway inhibitors in yeast reporter, dose response, S. cerevisiae, CDRE-lacZ, luminescence, secondary (AID 2388).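 Note: yeast reporter cells carrying a calcineurin-responsive lacZ construct stimulated with calcium chloride; luminescent beta-galactosidase reporter signal in whole cells rather than isolated phosphatase activity; potency for inhibition where a drop in reporter signal means calcineurin blockade.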 It counts as functional, cell-based.

Assay [6] can be described thus: cytotoxicity toward NIH3T3 fibroblasts, dose response, counter-screen, cell-based, ATP luminescence, mouse fibroblasts (AID 2010).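 Note: cells exposed to compound for about 90 hours before reading.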 The assay is classed as functional.
The test system of assay [7] is BJ. Description: cytotoxicity toward BJ-TERT-LT-ST fibroblasts, dose response, cell-based, RAS-independent, luminescence (AID 1935).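 Note: BJ fibroblasts immortalized with TERT plus LT and ST oncogenes.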 It counts as functional. The note with it: Homo sapiens.
Assay [8] concerns the target Hexokinase HKDC1 (Homo sapiens, UniProt Q2TB90). In words: HKDC1 hexokinase activators, dose response, biochemical, W721R variant (AID 504730). It counts as functional.
For assay [9], the target named is Hexokinase-1 (Homo sapiens, UniProt P19367). In words: hexokinase 1 activators, dose response, selectivity assay for HKDC1 activator project, biochemical (AID 504762). It counts as functional.
Assay [10] in a line: Counterscreen for AddAB inhibitors: absorbance-based bacterial cell-based high throughput dose response assay for inhibitors of bacterial viability. [Related pubchem assays (depositor defined):AID435030, AID449728, AID449731, AID488942, AID488955, AID488956]. It counts as functional. Background: A counterscreen serves to expose hits that act by an unwanted route or on another target.

Assay [11] has as its system HEK293. Description: inhibitors of LMP1-driven NF-kB reporter, dose response, cell-based, HEK293, luciferase, cherry-pick (AID 588343). It counts as functional. The note with it: Homo sapiens.
For assay [12], the system named is HEK293. Description: cytotoxicity in HEK293T NF-kB-Luc cells, SAR follow-up, cytotoxicity control for NF-kB activator project, cell-based, resazurin fluorescence (AID 493251). It counts as functional. The note with it: Homo sapiens.
Assay [13] relates to Jurkat. In words: SAR Analysis of small molecule inhibitors of T-cell specific antigen receptor-induced NF-kB activation in a Jurkat cell line using a luminescence assay - Set 2. [Related pubchem assays (depositor defined):AID435003, AID435012, AID465]. It counts as functional, cell-based. The note with it: Homo sapiens.
In assay [14] the test system is INS1. In words: beta cell apoptosis inhibitors, cytokine rescue, dose response, luminescence, retest (AID 449756).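 Note: cell death triggered by IL-1 beta plus TNF-alpha plus IFN-gamma mixture; protective hits raise ATP signal compared with cytokine alone wells.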 It counts as functional, cell-based. The note with it: Rattus norvegicus.
In assay [15] the target is ATP-dependent molecular chaperone HSP82 (Candida albicans (strain WO-1) (Yeast), UniProt C4YTQ8). Description: loss of DOC-induced GRE-beta-galactosidase reporter signal, dose response, Hsp90 inhibitor project, S. cerevisiae, luminescence (AID 2400).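 Note: beta-galactosidase luminescence from glucocorticoid response element reporter as proxy for Hsp90 function; inhibitor potency where signal loss means Hsp90 inhibition.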 It counts as functional, cell-based.
A short description of assay [16]: Shn3 3'UTR reporter inhibitors, dose response, cell-based, Clone20 osteoblasts, firefly luciferase, cherry-picked (AID 624132).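 Note: firefly luciferase luminescence from reporter carrying the Shn3 3'UTR in osteoblasts.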 The assay is classed as functional.
Assay [17] can be described thus: HepG2 cell cytotoxicity, dose response, cytotoxicity control for Shn3 inhibitor project, CellTiter-Glo, cherry-picked (AID 624134). The assay is classed as functional, cell-based.
The nature of assay [18]: control 3'UTR Renilla luciferase suppression, dose response, counter-screen for Shn3 inhibitor project, cell-based, Clone20-Shn3RL, cherry-picked (AID 624133). It counts as functional.
Assay [19] can be described thus: cells.
Assay [20] has as its system Streptococcus sp. 'group A'. In words: growth inhibition of control SK(-) GAS strain, dose response, counter-screen for streptokinase expression inhibitor project, luminescence, kanamycin, BacTiterGlo, confirmation (AID 1900). The assay is classed as functional, organism-based.
Assay [21] deals with Streptococcus. Description: Group A Streptococcus viability loss, dose response, counter-screen for streptokinase expression inhibitor project, luminescence, BacTiterGlo (AID 1915).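 Note: potency for reduction of bacterial viability or growth.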 It counts as functional, organism-based.
In assay [22] the target is T2, Caspase-3 (Homo sapiens, UniProt P42574).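 Note: Dose-response selectivity test against caspase-3 for candidate inhibitors of sentrin-specific proteases (SENPs).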
T2 sequence (P42574 whole entry): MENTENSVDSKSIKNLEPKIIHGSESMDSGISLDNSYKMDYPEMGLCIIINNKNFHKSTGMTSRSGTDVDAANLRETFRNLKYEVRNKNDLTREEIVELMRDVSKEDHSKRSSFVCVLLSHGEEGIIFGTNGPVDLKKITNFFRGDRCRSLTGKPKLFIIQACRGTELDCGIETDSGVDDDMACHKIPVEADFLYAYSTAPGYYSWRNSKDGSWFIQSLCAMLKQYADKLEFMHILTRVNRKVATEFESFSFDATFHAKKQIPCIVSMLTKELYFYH
It counts as functional.

Each structure is given as a SMILES string. Calls of active or inactive are those of the source. Bounds are passed on as bounds.

Hexokinase-1, sequence (P19367 whole entry): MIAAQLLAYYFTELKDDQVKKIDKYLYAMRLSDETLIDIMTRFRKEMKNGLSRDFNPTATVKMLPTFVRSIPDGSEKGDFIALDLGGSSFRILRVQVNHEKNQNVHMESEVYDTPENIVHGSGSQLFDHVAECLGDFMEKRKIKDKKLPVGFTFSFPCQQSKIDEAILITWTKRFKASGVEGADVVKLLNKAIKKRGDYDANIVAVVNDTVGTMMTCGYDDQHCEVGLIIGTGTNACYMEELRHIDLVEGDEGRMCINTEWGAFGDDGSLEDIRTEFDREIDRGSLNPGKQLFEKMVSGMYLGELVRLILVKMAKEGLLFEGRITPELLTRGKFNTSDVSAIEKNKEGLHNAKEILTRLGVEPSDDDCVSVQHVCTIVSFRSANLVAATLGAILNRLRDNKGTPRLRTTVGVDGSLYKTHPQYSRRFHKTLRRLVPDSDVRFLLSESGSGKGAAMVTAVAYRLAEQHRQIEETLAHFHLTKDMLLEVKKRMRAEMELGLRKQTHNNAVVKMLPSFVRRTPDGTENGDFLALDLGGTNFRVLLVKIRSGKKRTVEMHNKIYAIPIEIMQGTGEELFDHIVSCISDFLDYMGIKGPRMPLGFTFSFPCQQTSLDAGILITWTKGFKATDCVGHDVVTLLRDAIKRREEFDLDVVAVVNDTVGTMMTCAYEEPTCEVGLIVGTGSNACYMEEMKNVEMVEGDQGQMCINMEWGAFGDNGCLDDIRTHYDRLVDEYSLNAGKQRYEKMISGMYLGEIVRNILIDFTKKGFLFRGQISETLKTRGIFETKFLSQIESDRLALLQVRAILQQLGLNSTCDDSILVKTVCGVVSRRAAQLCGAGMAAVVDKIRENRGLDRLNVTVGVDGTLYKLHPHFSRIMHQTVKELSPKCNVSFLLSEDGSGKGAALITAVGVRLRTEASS
ATP-dependent molecular chaperone HSP82, sequence (C4YTQ8 whole entry): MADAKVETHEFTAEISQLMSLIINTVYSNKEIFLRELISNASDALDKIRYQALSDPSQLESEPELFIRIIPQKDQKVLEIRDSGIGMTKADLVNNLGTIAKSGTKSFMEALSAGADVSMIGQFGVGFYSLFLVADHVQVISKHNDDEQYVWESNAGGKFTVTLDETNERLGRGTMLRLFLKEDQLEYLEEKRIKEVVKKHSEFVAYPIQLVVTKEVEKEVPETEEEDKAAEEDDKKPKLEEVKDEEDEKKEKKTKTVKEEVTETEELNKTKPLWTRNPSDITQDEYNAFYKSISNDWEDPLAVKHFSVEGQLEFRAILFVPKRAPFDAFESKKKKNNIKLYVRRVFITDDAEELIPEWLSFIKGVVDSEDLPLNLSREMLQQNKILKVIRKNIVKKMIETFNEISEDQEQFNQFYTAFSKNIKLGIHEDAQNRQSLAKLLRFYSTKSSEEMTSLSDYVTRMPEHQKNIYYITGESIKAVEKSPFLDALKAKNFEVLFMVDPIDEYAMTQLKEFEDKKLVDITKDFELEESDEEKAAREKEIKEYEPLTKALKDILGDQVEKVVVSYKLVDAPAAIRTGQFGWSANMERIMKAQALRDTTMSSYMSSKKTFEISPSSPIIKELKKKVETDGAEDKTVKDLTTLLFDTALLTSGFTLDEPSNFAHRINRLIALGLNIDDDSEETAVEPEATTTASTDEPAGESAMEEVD
Hexokinase HKDC1, sequence (Q2TB90 whole entry): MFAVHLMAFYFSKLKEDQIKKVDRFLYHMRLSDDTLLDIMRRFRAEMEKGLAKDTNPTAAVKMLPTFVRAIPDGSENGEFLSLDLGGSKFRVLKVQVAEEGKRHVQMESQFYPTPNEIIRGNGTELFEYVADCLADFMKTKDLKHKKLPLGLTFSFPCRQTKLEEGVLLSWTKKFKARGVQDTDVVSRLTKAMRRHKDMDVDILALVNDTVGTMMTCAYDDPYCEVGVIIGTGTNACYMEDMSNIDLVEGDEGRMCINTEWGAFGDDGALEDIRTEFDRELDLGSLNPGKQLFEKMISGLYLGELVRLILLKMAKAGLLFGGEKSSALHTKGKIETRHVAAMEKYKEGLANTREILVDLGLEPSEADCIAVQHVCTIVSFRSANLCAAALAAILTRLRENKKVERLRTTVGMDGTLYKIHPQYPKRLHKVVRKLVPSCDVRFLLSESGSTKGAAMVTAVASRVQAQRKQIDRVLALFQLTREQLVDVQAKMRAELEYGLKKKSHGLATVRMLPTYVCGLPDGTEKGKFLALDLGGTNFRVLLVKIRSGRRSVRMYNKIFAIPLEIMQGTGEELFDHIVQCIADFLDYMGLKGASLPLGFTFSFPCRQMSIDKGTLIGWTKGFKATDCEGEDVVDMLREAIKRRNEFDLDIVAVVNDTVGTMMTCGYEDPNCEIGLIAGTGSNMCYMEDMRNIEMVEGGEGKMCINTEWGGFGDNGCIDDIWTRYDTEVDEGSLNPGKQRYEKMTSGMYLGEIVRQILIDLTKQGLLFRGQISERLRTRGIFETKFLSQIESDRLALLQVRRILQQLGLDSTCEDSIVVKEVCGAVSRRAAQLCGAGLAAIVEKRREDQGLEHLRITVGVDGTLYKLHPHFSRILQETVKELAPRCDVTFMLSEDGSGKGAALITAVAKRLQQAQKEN

On to `CCCCC(=O)NC(c1ccc(N(CC)CC)cc1)c1ccc2cccnc2c1O` (configuration not stated), for which the EC50 is 18100 nM (inconclusive) in assay [1]; 717 nM (active) in [2]; 2410 nM (active) in assay [3]; < 100 nM (active) in [4]; > 180000 nM (inactive) in [5]; 884 nM (active) in [6]. The concentration giving a half-maximal response (EC50) in assay [7] was 1790 nM (active); in assay [8] it was 13300 nM (active); in [9], > 80000 nM (inactive); in assay [15], > 150000 nM (inactive); in assay [19] it was 241 nM (active). Moreover, the IC50 was > 119000 nM (inactive) in assay [10], 35000 nM (inactive) in assay [12] and 3120 nM (active) in [13]. The AC50 in [11] is 5160 nM (active); in [14] it was 380 nM (active); in [16] it was 1120 nM (active); in [17], 1200 nM (active); in assay [18] it was 635 nM (active).

As to `CCOc1cccc(/C=N/NC(=S)Nc2ccccc2[N+](=O)[O-])c1O`, the EC50 was 267 nM (active) in assay [20] and 4180 nM (active) in assay [21]. Moreover, in assay [22], the concentration for half-maximal inhibition (IC50) was 4250 nM (active).
